Measured values from patent publication EP0099673A2, “Prostaglandin D derivatives, process for their preparation and compositions containing them” (ONO PHARMACEUTICAL CO., LTD., priority 1982, dated 1984).

Test system: human myelogenous leukemic cells (HL-60)
Experiment: Test on inhibition of proliferation using human myelogenous leukemic cells (HL-60)
Assay type: cell-based
Conditions: for Percentage Inhibition: HL-60, compound at 5 pg/ml, 4 days at 37 C, relative to control (0.1% ethanol); for Surviving Cell Number: HL-60, start 1 x 10^5 cells/ml, compound at 5 pg/ml, stationary culture at 37 C for 4 days, Trypan Blue staining, control 29.4 x 10^4
Experimental: rest on Inhibition of Proliferation Using Human Myeloqenous Leukemic Cells (HL-60)
The test on the inhibition of proliferation of human myelogenous leukemic cells was conducted by a well-known method. The human myelogenous leukemic cells (HL-60) were added to an RPMI culture solution containing 10% bovine fetal serum, the number of cells in the culture solution was adjusted to 1 x 10^5 cells/ml, a solution in ethanol of the compound under test was added to give a concentration of 5 pg/ml, and the mixture was subjected to stationary culture at 37 C for 4 days. As a control, a culture solution to which 0.1% of ethanol had been added was similarly cultured. After the cultivation, the culture solutions were stained by the Trypan Blue staining method and the surviving cell number was measured to determine the percentage inhibition relative to the control.

Compound	Percentage Inhibition [%]	Surviving Cell Number [cells/ml]
CCCCCC=CC=C1C(=O)C=C[C@@H]1CC(=O)CCCCC(=O)OC [Methyl (9Z,12EZ,14EZ)-6,11-dioxoprosta-9,12,14-trienoate]	100	0
Methyl (13E)-(9α,15S)-6,11-dioxo-9,15- dihvdroxvprost-13-enoate [6-Keto-PGD1 methyl ester]	100	0
CCCCCC=CC=C1C(=O)C[C@H](O)[C@@H]1CC(=O)CCCCC(=O)OC [(12EZ,14EZ)-(9α)-6,11-Dioxo-9-hydroxyprosta-12,14-dienoic acid methyl ester]	100	0
